The text below walks through data of patent US4876281A, “Antifungal agents” (Wakunaga Seiyaku Kabushiki Kaisha, priority 1986, dated 1989).

One series has as its system Candida albicans. The series can be described thus: 95% growth inhibitory concentration, Candida albicans. It counts as cell-based, Candida albicans IFO 1594. The conditions noted are these: read-out: 95% Growth inhibitory concentration, Candida albicans. As for the experimental part: (§1) Strains for use in test: Candida albicans, IFO 1594 Aspergillus niger, IFO 9455
(§2) Culture medium: Liquid Sabouraud's medium (maltose 40 g, proteose peptone 10 g, distilled water 1000 ml)
(§3) Positive control: amphotericin B (Sigma) 5-fluorocytosine (Wako Junyaku, Japan)
A culture resulting from shaken cultivation at 37° C. overnight was diluted 100-fold with the culture medium and used as seed culture.
A sample was diluted with the culture medium to vary concentrations and poured into test tubes each to contain 5 ml, and the seed culture (100 μl) was inoculated. After cultivation with shaking at 37° C. for 18 hours, formalin (0.5 ml) was added, thoroughly mixed, and diluted 10-fold with the culture medium. The resultant liquor was measured for absorbancy at 660 nm. The growth rate (%) was determined according to the equation [formula]
(§4) A sample was diluted with culture medium to vary concentrations and poured into test tubes each to contain 5 ml, and a platinum loop of spores was inoculated in each tube. After shaken cultivation at 37° C. for 3 days, formalin (0.5 ml) was added and well mixed. The mixture was centrifuged at 3500 rpm for 10 minutes to collect fungi, which were in turn dewatered on a filter paper, dried at 100° C. for one hour and weighed. The growth rate was determined by the following equation [formula] 95% growth-inhibitory concentration (up to 5% growth rate): a mean value of sample concentrations producing 95% growth inhibitory effects.

The test system of another series is Aspergillus niger. In words: 95% growth inhibitory concentration, Aspergillus niger. In kind it is cell-based, Aspergillus niger IFO 9455. As to conditions: IFO9455, 72 h, read-out: 95% Growth inhibitory concentration, Aspergillus niger. On the procedure:
as §1, §2, §3, §4

Series [1] in a line: one week toxicity test, intraperitoneal. As to conditions: 5 male ICR mice of 5 weeks age, dose not given. In kind it is in vivo.
The subject of the next series is platelet aggregation. As to conditions: literature; cited from earlier work.
The next series has as its system fungi. As to conditions: Japanese Patent Publication No. 263121/1987; cited from earlier work.
[2] abbreviates: IFO1594, Candida albicans IFO 1594, liquid Sabouraud's medium, 37° C., 18 hours, up to 5% growth rate, mean value.
The mark [3] stands for this setting: Aspergillus niger IFO 9455, liquid Sabouraud's medium, 37° C., 3 days, dry weight, up to 5% growth rate, mean value.

Values after ≈ are worked out from the molar mass of the structure shown. Read-outs that look alike come from different tables or passages of the source. A value given as a limit tells only on which side of the number the result lay.

As for `Nc1nc(=O)[nH]cc1F` [5-fluorocytosine, reference compound], the IC95 with Candida albicans (setting [2]) was found to be 20 µg/mL (≈ 155 µM); in the series on Aspergillus niger (setting [3]), 80 µg/mL (≈ 620 µM).

Consider `C[C@@H]1[C@H](O)[C@@H](C)/C=C/C=C/C=C/C=C/C=C/C=C/C=C/[C@H](O[C@@H]2O[C@H](C)[C@@H](O)[C@H](N)[C@@H]2O)C[C@@H]2O[C@](O)(C[C@@H](O)C[C@@H](O)[C@H](O)CC[C@@H](O)C[C@@H](O)CC(=O)O[C@H]1C)C[C@H](O)[C@H]2C(=O)O` [Amphotericin B, reference compound], for which the IC95 with Candida albicans (Candida albicans, IFO1594, 18 h) is 0.2 µg/mL (≈ 0.216 µM); with Aspergillus niger (Aspergillus niger), over 0.8 µg/mL. Regarding `C=CCSSC=CCS(=O)(=O)CC=C` [Compound 1], the “mortality after one week” value in series [1] is “no mortality was observed”. Besides, the IC95 with Candida albicans (setting [2]) is 5.4 µg/mL (≈ 21.6 µM); in the series with Aspergillus niger (setting [3]), 28.5 µg/mL (≈ 114 µM).

`C=CCSSC=CC[S+](C)[O-]` (stereo not shown) [Compound 5]: in the series with Aspergillus niger (setting [3]), the IC95 came to 57.3 µg/mL (≈ 275 µM). Same read-out and setting: as for `C=CC[S+]([O-])SC=CCS(=O)(=O)CC=C` (stereo not shown) [Compound 7], the figure is 30.8 µg/mL (≈ 116 µM); as for `CCOC(=O)CCCSSC=CC[S+]([O-])CCCC(=O)OCC` (stereo not shown) [Compound 10], 80.4 µg/mL (≈ 210 µM). Same read-out and setting: as for `C=CCS(=O)(=O)CC=CSSCc1ccccc1` [Compound 16], the figure is 42.2 µg/mL (≈ 140 µM). `C=CC[S+]([O-])CC=CSSC` (stereo not shown) [Compound 17]: the IC95 was found to be 40.7 µg/mL (≈ 195 µM) in the series on Candida albicans (setting [2]) and 49.1 µg/mL (≈ 236 µM) in the series with Aspergillus niger (setting [3]). For `C=CCSSC=CC[S+]([O-])CC=C` (stereo not shown) [ajoene], the “platelet aggregation inhibitory activity” value with platelet aggregation is recorded as “demonstrated to have platelet aggregation inhibitory activity”. In the series with fungi, the antifungal activity result is on record as “has antifungal activity”.

With `C=CCSSSC` [methylallyltrisulfide], the “platelet aggregation inhibitory activity” value in the series with platelet aggregation was “platelet aggregation inhibitory activity”.
